These results are taken from ChEMBL document CHEMBL5465560, “Selectivity Literature for EUbOPEN Chemogenomic Library” (2024).

Test [1] deals with Protein kinase C gamma type (Homo sapiens) (UniProt P05129). Nature of the test: Selectivity interaction (Kinase panel (Z-LYTE Assay)) EUB0001632a PRKCG. The following applies: at 10 µM.
Test [2] addresses T1, Mitogen-activated protein kinase kinase kinase 6 (Homo sapiens) (UniProt O95382).
T1 sequence (whole entry): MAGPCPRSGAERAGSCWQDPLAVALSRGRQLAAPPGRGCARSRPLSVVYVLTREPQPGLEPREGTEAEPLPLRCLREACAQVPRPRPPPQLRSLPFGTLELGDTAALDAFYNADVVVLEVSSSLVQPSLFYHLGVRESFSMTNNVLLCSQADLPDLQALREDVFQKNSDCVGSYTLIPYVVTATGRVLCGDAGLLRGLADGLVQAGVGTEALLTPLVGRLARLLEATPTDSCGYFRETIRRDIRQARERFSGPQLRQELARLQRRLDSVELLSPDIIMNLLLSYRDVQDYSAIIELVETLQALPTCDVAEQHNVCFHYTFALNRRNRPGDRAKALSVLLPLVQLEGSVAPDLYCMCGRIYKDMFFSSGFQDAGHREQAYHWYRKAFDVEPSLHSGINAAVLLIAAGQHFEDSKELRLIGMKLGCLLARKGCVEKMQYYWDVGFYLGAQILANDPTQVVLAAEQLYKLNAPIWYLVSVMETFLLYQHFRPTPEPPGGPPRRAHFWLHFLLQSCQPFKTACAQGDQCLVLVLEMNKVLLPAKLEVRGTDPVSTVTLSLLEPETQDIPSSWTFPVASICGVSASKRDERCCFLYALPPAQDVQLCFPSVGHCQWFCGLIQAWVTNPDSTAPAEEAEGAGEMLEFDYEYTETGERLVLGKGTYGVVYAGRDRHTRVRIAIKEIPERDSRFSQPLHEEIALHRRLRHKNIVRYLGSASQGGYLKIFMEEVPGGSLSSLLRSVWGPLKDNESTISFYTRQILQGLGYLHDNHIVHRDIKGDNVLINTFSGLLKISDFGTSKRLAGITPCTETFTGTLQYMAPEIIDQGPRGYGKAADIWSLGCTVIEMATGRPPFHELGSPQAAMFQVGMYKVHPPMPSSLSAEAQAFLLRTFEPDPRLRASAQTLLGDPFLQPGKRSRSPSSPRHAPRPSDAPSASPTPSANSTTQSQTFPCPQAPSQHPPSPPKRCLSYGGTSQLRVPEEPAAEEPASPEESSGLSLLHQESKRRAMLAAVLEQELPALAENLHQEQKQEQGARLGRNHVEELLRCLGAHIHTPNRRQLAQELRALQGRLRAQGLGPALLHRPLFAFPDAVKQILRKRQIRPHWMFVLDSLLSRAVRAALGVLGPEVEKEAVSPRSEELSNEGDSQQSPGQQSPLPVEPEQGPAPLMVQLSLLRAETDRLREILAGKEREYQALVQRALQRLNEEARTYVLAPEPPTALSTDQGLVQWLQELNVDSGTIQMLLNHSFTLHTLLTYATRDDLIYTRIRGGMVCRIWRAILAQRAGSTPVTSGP
Kind of test: Selectivity interaction (KinomeScan (DiscoverX)) EUB0000666a MAP3K6. The following applies: at 10 µM.

Test [3] addresses Tyrosine-protein kinase ABL1 (Homo sapiens, UniProt P00519). Kind of test: Selectivity interaction (ActivX KiNativ screen (kinase selectivity in THP-1 cell lysates)) EUB0000639a ABL1. The class given is subcellular. The following applies: lysate, at 1 µM.
Test [4] deals with Rho-associated protein kinase 1 (Homo sapiens) (UniProt Q13464). Nature of the test: Selectivity interaction (KinomeScan (DiscoverX)) EUB0001049a ROCK1. As to conditions: at 1 µM.
Sequence of Rho-associated protein kinase 1 (Homo sapiens) (Q13464 2-1354 limits assumed): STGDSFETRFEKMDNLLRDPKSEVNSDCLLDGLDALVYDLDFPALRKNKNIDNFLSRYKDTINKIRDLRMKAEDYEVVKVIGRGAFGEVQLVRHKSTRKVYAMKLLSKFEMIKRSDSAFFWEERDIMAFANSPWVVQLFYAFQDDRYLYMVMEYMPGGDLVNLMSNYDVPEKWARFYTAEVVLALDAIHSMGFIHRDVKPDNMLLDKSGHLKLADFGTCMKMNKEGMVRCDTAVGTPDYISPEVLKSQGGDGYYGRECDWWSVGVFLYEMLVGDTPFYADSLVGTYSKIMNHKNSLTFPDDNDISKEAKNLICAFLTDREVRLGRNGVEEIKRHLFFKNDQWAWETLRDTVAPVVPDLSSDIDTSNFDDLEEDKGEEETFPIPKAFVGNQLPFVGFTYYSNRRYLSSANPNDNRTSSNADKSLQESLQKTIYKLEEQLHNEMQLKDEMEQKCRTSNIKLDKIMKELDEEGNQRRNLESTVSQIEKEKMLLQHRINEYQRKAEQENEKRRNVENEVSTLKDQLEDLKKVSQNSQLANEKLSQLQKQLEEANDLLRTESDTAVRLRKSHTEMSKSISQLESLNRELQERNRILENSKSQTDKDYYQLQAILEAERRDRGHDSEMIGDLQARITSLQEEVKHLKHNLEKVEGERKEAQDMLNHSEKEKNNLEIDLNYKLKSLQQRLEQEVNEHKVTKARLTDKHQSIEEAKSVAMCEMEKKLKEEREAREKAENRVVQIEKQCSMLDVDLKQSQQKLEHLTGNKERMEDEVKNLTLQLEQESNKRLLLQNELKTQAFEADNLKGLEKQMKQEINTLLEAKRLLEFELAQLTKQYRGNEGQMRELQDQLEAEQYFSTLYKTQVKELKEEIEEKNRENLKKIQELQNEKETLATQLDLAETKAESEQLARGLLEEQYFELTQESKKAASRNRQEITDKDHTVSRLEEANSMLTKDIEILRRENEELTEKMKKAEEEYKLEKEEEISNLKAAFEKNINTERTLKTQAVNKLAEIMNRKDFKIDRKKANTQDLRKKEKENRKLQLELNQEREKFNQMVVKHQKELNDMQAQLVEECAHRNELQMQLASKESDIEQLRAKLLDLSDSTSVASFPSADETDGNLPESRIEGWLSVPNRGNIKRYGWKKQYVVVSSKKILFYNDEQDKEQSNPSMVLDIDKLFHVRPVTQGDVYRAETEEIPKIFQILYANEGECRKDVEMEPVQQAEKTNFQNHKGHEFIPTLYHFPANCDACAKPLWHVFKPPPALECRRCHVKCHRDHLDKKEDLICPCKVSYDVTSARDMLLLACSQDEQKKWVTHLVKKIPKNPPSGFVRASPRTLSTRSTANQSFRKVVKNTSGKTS
Test [5] deals with Tyrosine-protein kinase CSK (Homo sapiens) (UniProt P41240). Nature of the test: Selectivity interaction (Upstate Kinase Profiler service (Millipore)) EUB0000056c CSK. As to conditions: at 1 µM.
Sequence of Tyrosine-protein kinase CSK (Homo sapiens) (P41240 2-450 limits assumed): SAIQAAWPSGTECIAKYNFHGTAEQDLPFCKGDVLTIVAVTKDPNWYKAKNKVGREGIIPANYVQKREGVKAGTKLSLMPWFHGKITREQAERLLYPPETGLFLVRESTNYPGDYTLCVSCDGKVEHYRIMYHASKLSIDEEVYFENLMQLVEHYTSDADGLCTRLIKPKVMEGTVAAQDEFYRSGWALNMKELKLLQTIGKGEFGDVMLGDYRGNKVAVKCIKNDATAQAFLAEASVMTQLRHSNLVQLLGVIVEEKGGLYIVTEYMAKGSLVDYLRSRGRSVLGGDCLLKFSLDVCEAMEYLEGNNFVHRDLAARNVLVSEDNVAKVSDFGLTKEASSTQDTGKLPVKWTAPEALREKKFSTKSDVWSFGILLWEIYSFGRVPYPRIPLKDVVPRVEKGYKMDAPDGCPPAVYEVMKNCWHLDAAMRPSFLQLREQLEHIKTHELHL
For test [6], the target named is T2, Serine/threonine-protein kinase 3 (Homo sapiens) (UniProt Q13188).
T2 sequence (whole entry): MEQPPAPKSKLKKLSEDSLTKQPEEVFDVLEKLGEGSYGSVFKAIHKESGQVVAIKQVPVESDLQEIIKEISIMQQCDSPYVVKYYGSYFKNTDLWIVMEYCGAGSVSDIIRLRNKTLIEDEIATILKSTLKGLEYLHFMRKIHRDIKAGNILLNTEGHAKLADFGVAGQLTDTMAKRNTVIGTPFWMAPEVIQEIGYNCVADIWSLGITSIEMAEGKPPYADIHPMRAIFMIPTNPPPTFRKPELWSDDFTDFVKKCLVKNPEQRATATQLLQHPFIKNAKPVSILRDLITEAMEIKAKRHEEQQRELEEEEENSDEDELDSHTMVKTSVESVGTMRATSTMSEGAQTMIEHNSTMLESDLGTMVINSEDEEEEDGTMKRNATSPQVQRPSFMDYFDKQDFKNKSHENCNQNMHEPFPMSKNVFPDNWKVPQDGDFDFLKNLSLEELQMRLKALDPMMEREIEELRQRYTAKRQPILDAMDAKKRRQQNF
Kind of test: Selectivity interaction (KinomeScan (DiscoverX)) EUB0000655a STK3. As to conditions: at 10 µM.

The target of test [7] is T3, Cytoplasmic tyrosine-protein kinase BMX (Homo sapiens) (UniProt P51813).
T3 sequence (whole entry): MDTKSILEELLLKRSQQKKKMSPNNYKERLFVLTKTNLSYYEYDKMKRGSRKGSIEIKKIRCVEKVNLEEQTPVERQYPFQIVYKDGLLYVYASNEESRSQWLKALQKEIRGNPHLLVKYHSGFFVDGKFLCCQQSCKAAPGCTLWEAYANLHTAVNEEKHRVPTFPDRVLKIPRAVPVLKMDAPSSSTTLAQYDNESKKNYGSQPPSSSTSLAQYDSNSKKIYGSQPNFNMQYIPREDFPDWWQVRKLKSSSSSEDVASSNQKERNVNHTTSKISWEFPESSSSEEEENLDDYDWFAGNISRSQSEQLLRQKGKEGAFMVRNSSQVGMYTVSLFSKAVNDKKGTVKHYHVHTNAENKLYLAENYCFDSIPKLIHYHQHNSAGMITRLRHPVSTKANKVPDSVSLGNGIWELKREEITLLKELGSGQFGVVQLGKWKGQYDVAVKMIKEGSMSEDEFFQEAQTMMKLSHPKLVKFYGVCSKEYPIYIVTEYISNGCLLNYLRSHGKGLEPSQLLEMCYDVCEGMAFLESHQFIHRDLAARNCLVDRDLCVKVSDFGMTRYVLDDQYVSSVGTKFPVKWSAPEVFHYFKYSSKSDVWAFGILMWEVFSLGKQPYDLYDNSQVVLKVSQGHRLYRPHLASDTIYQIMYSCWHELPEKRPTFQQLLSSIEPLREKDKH
Kind of test: Selectivity interaction (KinomeScan (DiscoverX)) EUB0000092b BMX. The following applies: at 10 µM.

Test [8] has as its target Fibroblast growth factor receptor 1 (Homo sapiens, UniProt P11362). Nature of the test: Selectivity interaction (KinomeScan (DiscoverX)) EUB0000229b FGFR1. As to conditions: at 10 µM.

Sequence of Fibroblast growth factor receptor 1 (P11362 22-822 limits assumed): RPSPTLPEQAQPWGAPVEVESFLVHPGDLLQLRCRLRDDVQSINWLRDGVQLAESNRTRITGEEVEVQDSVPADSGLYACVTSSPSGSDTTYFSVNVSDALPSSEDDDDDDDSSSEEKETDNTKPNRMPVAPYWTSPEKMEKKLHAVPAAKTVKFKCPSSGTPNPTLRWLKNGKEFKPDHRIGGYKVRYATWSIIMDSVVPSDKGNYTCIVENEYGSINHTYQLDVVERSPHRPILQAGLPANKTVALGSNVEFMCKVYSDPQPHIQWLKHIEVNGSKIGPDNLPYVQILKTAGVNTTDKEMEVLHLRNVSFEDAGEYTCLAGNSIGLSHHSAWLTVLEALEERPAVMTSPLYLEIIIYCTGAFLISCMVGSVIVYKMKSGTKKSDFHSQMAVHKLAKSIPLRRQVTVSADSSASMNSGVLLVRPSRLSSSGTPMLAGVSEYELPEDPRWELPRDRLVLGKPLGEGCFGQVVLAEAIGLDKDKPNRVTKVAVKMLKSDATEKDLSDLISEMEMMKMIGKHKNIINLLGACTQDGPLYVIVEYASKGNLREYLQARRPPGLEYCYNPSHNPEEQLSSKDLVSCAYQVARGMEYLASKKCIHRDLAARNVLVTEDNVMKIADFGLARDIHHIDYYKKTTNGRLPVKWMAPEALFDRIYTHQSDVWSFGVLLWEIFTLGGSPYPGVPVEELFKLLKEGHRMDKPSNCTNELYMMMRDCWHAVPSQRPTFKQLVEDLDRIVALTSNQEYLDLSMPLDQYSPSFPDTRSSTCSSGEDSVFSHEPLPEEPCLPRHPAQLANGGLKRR
Sequence of Tyrosine-protein kinase ABL1 (P00519 whole entry): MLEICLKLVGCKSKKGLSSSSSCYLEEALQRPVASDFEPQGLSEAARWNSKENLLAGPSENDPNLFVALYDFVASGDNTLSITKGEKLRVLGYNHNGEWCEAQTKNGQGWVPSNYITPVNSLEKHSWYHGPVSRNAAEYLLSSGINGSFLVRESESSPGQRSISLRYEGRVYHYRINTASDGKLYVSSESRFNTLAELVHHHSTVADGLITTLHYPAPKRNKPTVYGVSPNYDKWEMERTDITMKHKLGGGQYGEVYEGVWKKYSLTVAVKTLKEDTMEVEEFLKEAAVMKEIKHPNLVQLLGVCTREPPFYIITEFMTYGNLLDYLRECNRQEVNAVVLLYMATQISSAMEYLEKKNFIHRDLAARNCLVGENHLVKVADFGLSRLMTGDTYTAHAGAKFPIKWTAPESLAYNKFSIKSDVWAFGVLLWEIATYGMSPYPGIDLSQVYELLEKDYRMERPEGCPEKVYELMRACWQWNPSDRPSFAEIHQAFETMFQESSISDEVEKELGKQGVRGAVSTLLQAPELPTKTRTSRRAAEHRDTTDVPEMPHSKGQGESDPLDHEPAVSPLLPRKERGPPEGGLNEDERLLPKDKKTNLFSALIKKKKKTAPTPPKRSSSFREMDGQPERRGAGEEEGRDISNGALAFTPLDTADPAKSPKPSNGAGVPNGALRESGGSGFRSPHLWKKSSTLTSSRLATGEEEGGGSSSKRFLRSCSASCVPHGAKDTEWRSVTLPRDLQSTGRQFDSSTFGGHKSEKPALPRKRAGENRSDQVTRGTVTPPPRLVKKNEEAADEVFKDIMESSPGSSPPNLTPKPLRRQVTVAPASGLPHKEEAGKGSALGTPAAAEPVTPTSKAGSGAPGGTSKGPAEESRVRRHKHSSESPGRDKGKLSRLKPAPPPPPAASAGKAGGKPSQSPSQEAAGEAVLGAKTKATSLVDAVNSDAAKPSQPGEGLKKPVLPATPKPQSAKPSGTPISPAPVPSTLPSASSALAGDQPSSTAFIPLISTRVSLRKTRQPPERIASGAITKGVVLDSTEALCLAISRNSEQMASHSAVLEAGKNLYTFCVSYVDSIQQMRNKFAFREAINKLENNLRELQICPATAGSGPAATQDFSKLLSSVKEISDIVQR

`Cn1cc(-n2cnc3c(NCc4nc5cc(Cl)c(Cl)cc5[nH]4)nc(N4CCOCC4)nc32)cn1` had a % of control in test [1] of 11.7%.
`O=C(NOC[C@H](O)CO)c1ccc(F)c(F)c1Nc1ccc(I)cc1F` yielded a % of control in test [2] of 95%.
In the case of `CC[C@@H]1[C@H](F)C(=O)N[C@@H]1COc1nccc2cc(C(N)=O)c(OC)cc12` [ZIMLOVISERTIB], the % of inhibition in test [3] is -13.2%.
The compound `COc1cc(Nc2nc(C)cc(-c3cnn4nc(OC)ccc34)n2)cc(C(F)(F)F)c1` displayed a % of control in test [4] of 99%.
Take `Cc1ccc(-c2ccc3c(ccc4sc5c(c43)NC[C@@H](C)NC5=O)n2)cn1`: the % of inhibition in test [5] came to 5%.
On to `CN(C)CCOc1ccc(-c2nc(-c3ccncc3)c(-c3ccc4c(c3)CC/C4=N\O)[nH]2)cc1`, for which the % of control in test [6] was determined as 88%.
Turning to `CCC(=O)N1CCN(c2ccc(-n3c(=O)ccc4cnc5ccc(-c6cnc7ccccc7c6)cc5c43)cc2C(F)(F)F)CC1`, the % of control in test [7] amounted to 59%.
In test [8], `COc1cc(N(C)c2ccnc3ccc(C(F)(F)F)cc23)cc(OC)c1OC` showed a % binding of 99%.
